Consider five molecules from US7605190B2, “Polymerizable compositions with acylgermanium compounds” (Ivoclar Vivadent AG, priority 2006, dated 2009).

For series [1] the following is noted: known comparison photoinitiators; cited from earlier work.
Series [2] is described as follows: Photoinitiator activity by photo-DSC. As to the method: The activity of the photoinitiators was measured by means of photo-DSC (Differential Scanning Calorimetry) measurements on a DSC-50 device from Shimadzu, wherein the samples were irradiated alternatively with different dental lamps (Astalis 3: halogen lamp, wavelength range 400-500 nm, intensity 530 mW/cm^2; Bluephase C8: LED, wavelength range 430-490 nm, intensity 1100 mW/cm^2; Ivoclar Vivadent AG). The activity is characterized by the time of peak maximum (tmax), the polymerization rate (RP) which corresponds to the peak height, and the double bond conversion (DBC). The respective photoinitiators were dissolved in a resin mixture of D3MA:UDMA:bis-GMA=1:1:1 and then measured in an aluminum crucible by means of DSC. […]

A short description of series [3]: Absorption maximum (UV-VIS). Type of series: physicochemical. As to conditions: own acylgermanium photoinitiators.
The mark [4] stands for this setting: Astralis 3 lamp (400-500 nm), 0.022 mmol PI per gram of resin.
The mark [5] stands for this setting: Bluephase C8 lamp (430-490 nm), 0.022 mmol PI per gram of resin.

Structures are written as SMILES. Like-named read-outs stand apart in the source and are kept apart here.

For `Cc1cc(C)c(C(=O)P(=O)(C(=O)c2c(C)cc(C)cc2C)c2ccccc2)c(C)c1` [Irg 819, bis(2,4,6-trimethylbenzoyl)phenylphosphine oxide, reference compound], the absorption maximum in series [1] was 397 nm. For the same molecule, the DBC in series [2] (setting [4]) turned out to be 59%; in series [2] (setting [5]), 45%; in series [2] (PI concentration 0.0014 mmol/g) it was 42%; in series [2] (PI concentration 0.0055 mmol/g), 48%. For the same molecule, the “Rp × 10^−3” value in series [2] (setting [4]) is 67.5 mol/(l × s); in series [2] (setting [5]), 43.5 mol/(l × s); in series [2] (PI concentration 0.0014 mmol/g), 30.4 mol/(l × s); in series [2] (PI concentration 0.0055 mmol/g), 48.3 mol/(l × s). Moreover, the tmax in series [2] (setting [4]) is recorded as 11 s; in series [2] (setting [5]), 17 s; in series [2] (PI concentration 0.0014 mmol/g) it was 23 s; in series [2] (PI concentration 0.0055 mmol/g), 14 s.

Regarding `O=[C](c1ccccc1)[Ge]1([C](=O)c2ccccc2)[CH2]CCC[CH2]1` [Example 9, 1,1-bisbenzoyl-germinane], in series [3], the absorption maximum is listed as 418.1 nm.

Turning to `CC12CCC(C(=O)C1=O)C2(C)C` (centres unmarked) [camphorquinone], the absorption maximum in series [1] was 468 nm.

Regarding `[CH3][Ge]([CH3])([CH3])[C](=O)c1ccccc1` [Mono-AG, benzoyltrimethylgermanium], the DBC stood at 56% in series [2] (setting [4]), 49% in series [2] (setting [5]), 30% in series [2] (PI concentration 0.0014 mmol/g) and 48% in series [2] (PI concentration 0.0055 mmol/g). Further, the “Rp × 10^−3” value in series [2] (setting [4]) is recorded as 51.0 mol/(l × s); in series [2] (setting [5]), 48.3 mol/(l × s); in series [2] (PI concentration 0.0014 mmol/g), 16.4 mol/(l × s); in series [2] (PI concentration 0.0055 mmol/g), 36.2 mol/(l × s). In addition, the tmax is recorded as 16 s in series [2] (setting [4]), 16 s in series [2] (setting [5]), 52 s in series [2] (PI concentration 0.0014 mmol/g) and 24 s in series [2] (PI concentration 0.0055 mmol/g). Further, in series [3], the absorption maximum came out at 411.5 nm.

In the case of `C[CH2][Ge]([CH2]C)([C](=O)c1ccccc1)[C](=O)c1ccccc1` [Bis-AG, bisbenzoyldiethylgermanium], the “reactivity compared with camphorquinone/amine” value in series [2] (15-fold dilution of the initiator) was “comparable with camphorquinone/amine”. Further, the DBC in series [2] (setting [4]) stood at 84%; in series [2] (setting [5]) it was 72%; in series [2] (PI concentration 0.0014 mmol/g) it was 56%; in series [2] (PI concentration 0.0055 mmol/g) it was 66%. Further, the “Rp × 10^−3” value in series [2] (setting [4]) is 99.2 mol/(l × s); in series [2] (setting [5]), 98.5 mol/(l × s); in series [2] (PI concentration 0.0014 mmol/g), 61.0 mol/(l × s); in series [2] (PI concentration 0.0055 mmol/g), 85.6 mol/(l × s). For the same molecule, the tmax in series [2] (setting [4]) is recorded as 7.8 s; in series [2] (setting [5]), 7.8 s; in series [2] (PI concentration 0.0014 mmol/g), 12 s; in series [2] (PI concentration 0.0055 mmol/g) it was 9 s. Also, in series [2] (D3MA:UDMA:bis-GMA=1:1:1), the “curing time compared with campherquinone/amine” value is reported as “halved”. For the same molecule, in series [2] (same formulation, D3MA:UDMA:bis-GMA=1:1:1), the “polymerization rate (Rp) relative to camphorquinone in combination with an amine accelerator” value is “almost double”. In series [3], the absorption maximum came out at 418.5 nm.
